Data reported in patent US20110223202A1, “CATIONIC CORE-SHELL PEPTIDE NONOPARTICLES” (priority 2007, published 2011).
≈ marks a conversion by molar mass, not a printed value. Like-named read-outs stand apart in the source and are kept apart here. No end group written: not given here.

Experiments:
Format in all cases: cell-based
Candida albicans = conditions: broth microdilution, no growth observed
Protocol: (§1) Bacillus subtilis, Candida albicans and Stachybotrys chartarum (ATCC) were grown in tryptic soy broth at 37° C., yeast mold broth at 24° C. and tryptic soy broth at 26° C., respectively. The MICs of the peptides or peptide nanoparticles were measured using a broth microdilution method. Briefly, 50 μL of peptide and peptide nanoparticle solutions with a concentration of 7.1 to 142 μM was placed into each well of 96-well plates. 50 μL of microorganism solution was added to each well to give an optical density reading of 0.1 to 0.2 at 600 nm. The cell cultures were then incubated for 15, 12/16 and 170 hours for Bacillus subtilis, Candida albicans and Stachybotrys chartarum respectively, and the MIC was taken at the concentration at which no growth was observed. Broth containing cells alone was used as control. The tests were repeated three times.

Bacillus subtilis = assay: microbe, parasite or virus in culture; conditions: read-out: MIC against Bacillus subtilis
Protocol: as §1, with “The cell cultures were then incubated for 15, 12/16 and 170 hours for Bacillus subtilis, Candida albicans and Stachybotrys chartarum respectively, and the MIC was taken at the concentration at which no growth was observed.” left out

rat red blood cells = assay: Hemolysis assay; conditions: at concentrations lower than its MIC
Protocol: Fresh rat red blood cells were washed with PBS for three times. 100 μL of red blood cells suspended in PBS (4% in volume) was placed in each well of 96-well plates and 100 μL of peptide nanoparticle or amphotericin B solution was added to each well. The plates were incubated for one hour at 37° C. The cell suspensions were taken out and centrifuged at 1000 g for 5 minutes. Aliquots (100 μL) of supernatant were transferred to 96-well plates, and hemoglobin release was monitored at 576 nm using a microplate reader (Bio-Teck Instruments, Inc). Percentage of hemolysis was calculated using the following formula: Hemolysis (%)=[(O.D.576 nm in the nanoparticle solution−O.D.576 nm in PBS)/(O.D.576 nm in 0.1% Triton X-100−O.D.576 nm in PBS)]×100. In vivo studies.

Stachybotrys chartarum = assay: microbe, parasite or virus in culture; conditions: broth microdilution, no growth observed, read-out: MIC against Stachybotrys chartarum
Protocol: as §1

[1] = broth microdilution, no growth observed

Compound | MIC against Candida albicans (Candida albicans) [µM] | MIC (Bacillus subtilis; [1]) [µM] | other results
N=C(N)NCCC[C@H](NC(=O)[C@H](CCCNC(=N)N)NC(=O)[C@H](CCCNC(=N)N)NC(=O)[C@H](CCCNC(=N)N)NC(=O)[C@H](CCCNC(=N)N)NC(=O)[C@H](CCCNC(=N)N)NC(=O)[C@H](CCCNC(=N)N)NC(=O)[C@H](CCCNC(=N)N)NC(=O)[C@H](CCCNC(=N)N)NC(=O)[C@H](CCCNC(=N)N)NC(=O)[C@H](CCCNC(=N)N)NC(=O)[C@H](CCCNC(=N)N)NC(=O)CNC(=O)CNC(=O)CN)C(N)=O [G3R12] | 242.0 (≈ 499 µg/mL) | 242.0 (≈ 499 µg/mL) | 
N=C(N)NCCC[C@H](NC(=O)[C@H](CCCNC(=N)N)NC(=O)[C@H](CCCNC(=N)N)NC(=O)[C@H](CCC(N)=O)NC(=O)[C@H](CCCNC(=N)N)NC(=O)[C@H](CCCNC(=N)N)NC(=O)[C@H](CCCCN)NC(=O)[C@H](CCCCN)NC(=O)[C@H](CCCNC(=N)N)NC(=O)CNC(=O)[C@H](Cc1ccc(O)cc1)NC(=O)CNC(=O)CNC(=O)CN)C(N)=O [G3TAT] | 289.0 (≈ 500 µg/mL) | 290.0 (≈ 502 µg/mL) | 
C[C@@H]1[C@H](O)[C@@H](C)/C=C/C=C/C=C/C=C/C=C/C=C/C=C/[C@H](O[C@@H]2O[C@H](C)[C@@H](O)[C@H](N)[C@@H]2O)C[C@@H]2O[C@](O)(C[C@@H](O)C[C@@H](O)[C@H](O)CC[C@@H](O)C[C@@H](O)CC(=O)O[C@H]1C)C[C@H](O)[C@H]2C(=O)O [amphotericin B] |  |  | hemolysis (rat red blood cells): more than 90%; MIC (Stachybotrys chartarum): > 54.0 µM
C[C@H]1c2cccc(O)c2C(=O)C2=C(O)[C@]3(O)C(=O)C(C(N)=O)=C(O)[C@@H](N(C)C)[C@@H]3[C@@H](O)[C@@H]21 [doxycycline] |  |  | MIC (Bacillus subtilis; Bacillus subtilis, FIG. 12, 16 hours of incubation): 13.5 µM (≈ 6 µg/mL)
OC(Cn1cncn1)(Cn1cncn1)c1ccc(F)cc1F [fluconazole] |  |  | MIC (Stachybotrys chartarum; Stachybotrys chartarum): > 817 µM
CC1(C)S[C@@H]2[C@H](NC(=O)Cc3ccccc3)C(=O)N2[C@H]1C(=O)O [penicillin G] |  |  | MIC (Bacillus subtilis; FIG. 12, 16 hours of incubation): 1074 µM (≈ 359 µg/mL)
GGGRRRRRR-NH2 (C-terminus assumed) [G3R6] | > 444.4 | > 444.4 | 
GGGRRRRRRYGRKKRRQRRR-NH2 [G3R6TAT] | 75.0 | 75.0 | 
